Source: ChEMBL document CHEMBL5291721, “A preclinical secondary pharmacology resource illuminates target-adverse drug reaction associations of marketed drugs” (Nat Commun, 2023)
Where a SMILES comes first, the peptide text is derived from it.

How the values were obtained:
[1] = target: Voltage-gated inwardly rectifying potassium channel KCNH2 (Homo sapiens, UniProt Q12809); type: functional; conditions: read-out: AC50
Vasopressin V1a receptor = Vasopressin V1a receptor (Homo sapiens, UniProt P37288)
Sequence of Vasopressin V1a receptor (P37288 whole entry): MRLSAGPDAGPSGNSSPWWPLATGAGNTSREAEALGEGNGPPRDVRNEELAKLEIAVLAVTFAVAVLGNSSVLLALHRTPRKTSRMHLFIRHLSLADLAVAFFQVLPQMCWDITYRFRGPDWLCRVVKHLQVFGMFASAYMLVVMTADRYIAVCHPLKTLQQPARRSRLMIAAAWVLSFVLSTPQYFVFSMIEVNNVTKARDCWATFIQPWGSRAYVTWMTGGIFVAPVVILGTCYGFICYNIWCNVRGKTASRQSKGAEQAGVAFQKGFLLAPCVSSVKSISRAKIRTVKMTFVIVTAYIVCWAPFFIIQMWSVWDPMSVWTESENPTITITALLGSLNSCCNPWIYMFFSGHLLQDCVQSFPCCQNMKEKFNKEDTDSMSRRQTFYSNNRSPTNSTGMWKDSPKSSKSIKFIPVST

D(3) dopamine receptor = D(3) dopamine receptor (Homo sapiens, UniProt P35462)
Sequence of D(3) dopamine receptor (P35462 whole entry): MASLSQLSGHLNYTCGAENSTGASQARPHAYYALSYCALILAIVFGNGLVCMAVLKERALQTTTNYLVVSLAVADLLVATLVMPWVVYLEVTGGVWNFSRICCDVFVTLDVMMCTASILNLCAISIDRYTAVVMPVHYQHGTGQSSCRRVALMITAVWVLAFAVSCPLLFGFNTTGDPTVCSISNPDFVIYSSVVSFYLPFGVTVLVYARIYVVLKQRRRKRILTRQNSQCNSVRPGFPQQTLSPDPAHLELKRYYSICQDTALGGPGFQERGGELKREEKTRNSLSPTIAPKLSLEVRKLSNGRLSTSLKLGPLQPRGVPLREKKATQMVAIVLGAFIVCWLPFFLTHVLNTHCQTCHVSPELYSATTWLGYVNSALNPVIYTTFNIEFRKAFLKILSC

[2] = target: Beta-1 adrenergic receptor (Homo sapiens, UniProt P08588); type: functional
Sequence of Beta-1 adrenergic receptor (P08588 whole entry): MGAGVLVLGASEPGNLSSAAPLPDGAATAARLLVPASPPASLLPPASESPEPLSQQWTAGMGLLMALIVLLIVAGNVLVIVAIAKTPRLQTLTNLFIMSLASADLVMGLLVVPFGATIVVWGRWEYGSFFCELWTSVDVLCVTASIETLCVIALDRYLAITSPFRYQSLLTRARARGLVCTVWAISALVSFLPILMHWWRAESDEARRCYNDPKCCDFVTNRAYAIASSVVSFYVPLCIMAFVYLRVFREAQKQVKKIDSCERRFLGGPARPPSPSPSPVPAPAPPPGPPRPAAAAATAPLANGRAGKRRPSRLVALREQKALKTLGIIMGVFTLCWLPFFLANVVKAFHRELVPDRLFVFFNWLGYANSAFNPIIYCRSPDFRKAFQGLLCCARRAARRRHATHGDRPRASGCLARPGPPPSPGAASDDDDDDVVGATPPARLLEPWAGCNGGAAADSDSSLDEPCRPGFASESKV

[3] = target: T1, 5-hydroxytryptamine receptor 2C (Homo sapiens, UniProt P28335)
T1 sequence (P28335 whole entry): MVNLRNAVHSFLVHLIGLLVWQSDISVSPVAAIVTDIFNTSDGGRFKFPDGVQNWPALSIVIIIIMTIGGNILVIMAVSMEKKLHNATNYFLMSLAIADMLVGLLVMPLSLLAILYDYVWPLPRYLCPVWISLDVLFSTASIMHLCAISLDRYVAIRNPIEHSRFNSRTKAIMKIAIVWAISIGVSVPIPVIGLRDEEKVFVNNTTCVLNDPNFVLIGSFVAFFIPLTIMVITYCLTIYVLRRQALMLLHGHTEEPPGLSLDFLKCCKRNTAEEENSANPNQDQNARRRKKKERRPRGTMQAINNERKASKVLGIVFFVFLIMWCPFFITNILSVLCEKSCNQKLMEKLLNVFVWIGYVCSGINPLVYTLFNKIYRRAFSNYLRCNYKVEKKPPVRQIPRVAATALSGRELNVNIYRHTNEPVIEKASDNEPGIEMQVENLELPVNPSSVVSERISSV

[4] = target: T2, Alpha-2A adrenergic receptor (Homo sapiens, UniProt P08913); type: functional, cell-based
T2 sequence (P08913 whole entry): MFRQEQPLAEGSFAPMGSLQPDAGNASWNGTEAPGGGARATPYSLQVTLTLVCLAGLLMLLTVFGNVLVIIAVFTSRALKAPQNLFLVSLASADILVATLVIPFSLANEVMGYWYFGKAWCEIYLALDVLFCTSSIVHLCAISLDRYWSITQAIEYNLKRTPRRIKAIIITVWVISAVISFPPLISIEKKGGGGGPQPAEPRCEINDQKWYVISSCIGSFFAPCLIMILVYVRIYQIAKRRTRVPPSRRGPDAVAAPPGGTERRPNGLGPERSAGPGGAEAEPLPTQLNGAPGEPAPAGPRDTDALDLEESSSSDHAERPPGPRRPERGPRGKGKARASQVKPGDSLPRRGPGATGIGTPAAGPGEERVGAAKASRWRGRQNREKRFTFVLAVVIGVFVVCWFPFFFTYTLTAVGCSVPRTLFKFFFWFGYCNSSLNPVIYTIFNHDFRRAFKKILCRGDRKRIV

[5] = target: T3, Muscarinic acetylcholine receptor M1 (Homo sapiens, UniProt P11229); type: functional
T3 sequence (P11229 whole entry): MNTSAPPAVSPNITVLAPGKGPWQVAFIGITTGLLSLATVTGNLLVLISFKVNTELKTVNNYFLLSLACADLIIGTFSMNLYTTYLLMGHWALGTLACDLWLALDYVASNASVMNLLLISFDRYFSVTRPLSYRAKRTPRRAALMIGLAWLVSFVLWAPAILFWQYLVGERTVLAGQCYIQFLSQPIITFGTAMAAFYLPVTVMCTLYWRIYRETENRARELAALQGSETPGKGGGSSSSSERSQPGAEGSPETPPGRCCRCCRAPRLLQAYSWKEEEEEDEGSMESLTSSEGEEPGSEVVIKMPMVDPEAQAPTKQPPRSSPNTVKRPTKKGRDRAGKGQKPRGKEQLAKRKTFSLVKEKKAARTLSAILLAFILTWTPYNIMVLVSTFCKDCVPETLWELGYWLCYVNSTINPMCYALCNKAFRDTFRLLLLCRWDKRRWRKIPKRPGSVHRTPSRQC

[6] = target: Delta-type opioid receptor (Homo sapiens, UniProt P41143)
Sequence of Delta-type opioid receptor (P41143 whole entry): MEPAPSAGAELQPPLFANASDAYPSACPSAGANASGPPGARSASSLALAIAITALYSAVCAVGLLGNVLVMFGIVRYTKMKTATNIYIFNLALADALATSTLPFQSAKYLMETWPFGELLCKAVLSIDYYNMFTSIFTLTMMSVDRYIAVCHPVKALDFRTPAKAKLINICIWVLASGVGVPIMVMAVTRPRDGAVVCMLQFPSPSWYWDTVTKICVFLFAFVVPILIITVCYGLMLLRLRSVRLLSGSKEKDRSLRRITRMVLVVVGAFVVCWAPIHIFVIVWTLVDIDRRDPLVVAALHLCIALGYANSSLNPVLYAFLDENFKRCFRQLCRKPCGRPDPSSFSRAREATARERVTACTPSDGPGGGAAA

[7] = target: T4, Alpha-1A adrenergic receptor (Homo sapiens, UniProt P35348); type: functional, cell-based
T4 sequence (P35348 whole entry): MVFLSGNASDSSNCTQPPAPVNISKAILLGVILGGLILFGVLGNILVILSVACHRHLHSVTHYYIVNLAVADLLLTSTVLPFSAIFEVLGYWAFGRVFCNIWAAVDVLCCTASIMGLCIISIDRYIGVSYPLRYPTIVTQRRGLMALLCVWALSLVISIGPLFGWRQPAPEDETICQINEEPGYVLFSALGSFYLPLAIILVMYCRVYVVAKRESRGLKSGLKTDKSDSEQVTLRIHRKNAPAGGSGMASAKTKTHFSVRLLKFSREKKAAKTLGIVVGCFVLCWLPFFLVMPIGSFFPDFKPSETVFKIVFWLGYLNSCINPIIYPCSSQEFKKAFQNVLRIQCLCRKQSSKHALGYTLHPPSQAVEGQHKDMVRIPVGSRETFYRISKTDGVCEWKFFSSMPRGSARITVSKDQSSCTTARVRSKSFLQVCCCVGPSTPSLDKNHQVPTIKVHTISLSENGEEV

Estrogen receptor = target: T5, Estrogen receptor (Homo sapiens, UniProt P03372)
T5 sequence (P03372 whole entry): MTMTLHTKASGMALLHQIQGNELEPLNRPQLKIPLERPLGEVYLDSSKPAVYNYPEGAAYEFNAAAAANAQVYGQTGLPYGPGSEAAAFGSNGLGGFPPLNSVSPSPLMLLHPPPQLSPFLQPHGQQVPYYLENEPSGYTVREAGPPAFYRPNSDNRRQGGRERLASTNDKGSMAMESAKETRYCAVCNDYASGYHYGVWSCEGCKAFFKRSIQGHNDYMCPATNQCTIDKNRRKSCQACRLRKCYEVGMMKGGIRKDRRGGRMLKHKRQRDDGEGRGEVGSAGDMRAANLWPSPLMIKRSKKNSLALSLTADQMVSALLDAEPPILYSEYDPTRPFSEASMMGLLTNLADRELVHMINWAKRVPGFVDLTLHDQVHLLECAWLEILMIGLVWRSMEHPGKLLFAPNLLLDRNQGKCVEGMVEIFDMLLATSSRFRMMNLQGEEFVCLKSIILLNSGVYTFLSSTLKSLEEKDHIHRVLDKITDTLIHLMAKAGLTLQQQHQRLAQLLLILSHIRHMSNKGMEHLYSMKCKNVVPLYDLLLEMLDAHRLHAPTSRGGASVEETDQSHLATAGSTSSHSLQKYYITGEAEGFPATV
Further: assay procedure not described here.

Sequence of Voltage-gated inwardly rectifying potassium channel KCNH2 (Q12809 whole entry): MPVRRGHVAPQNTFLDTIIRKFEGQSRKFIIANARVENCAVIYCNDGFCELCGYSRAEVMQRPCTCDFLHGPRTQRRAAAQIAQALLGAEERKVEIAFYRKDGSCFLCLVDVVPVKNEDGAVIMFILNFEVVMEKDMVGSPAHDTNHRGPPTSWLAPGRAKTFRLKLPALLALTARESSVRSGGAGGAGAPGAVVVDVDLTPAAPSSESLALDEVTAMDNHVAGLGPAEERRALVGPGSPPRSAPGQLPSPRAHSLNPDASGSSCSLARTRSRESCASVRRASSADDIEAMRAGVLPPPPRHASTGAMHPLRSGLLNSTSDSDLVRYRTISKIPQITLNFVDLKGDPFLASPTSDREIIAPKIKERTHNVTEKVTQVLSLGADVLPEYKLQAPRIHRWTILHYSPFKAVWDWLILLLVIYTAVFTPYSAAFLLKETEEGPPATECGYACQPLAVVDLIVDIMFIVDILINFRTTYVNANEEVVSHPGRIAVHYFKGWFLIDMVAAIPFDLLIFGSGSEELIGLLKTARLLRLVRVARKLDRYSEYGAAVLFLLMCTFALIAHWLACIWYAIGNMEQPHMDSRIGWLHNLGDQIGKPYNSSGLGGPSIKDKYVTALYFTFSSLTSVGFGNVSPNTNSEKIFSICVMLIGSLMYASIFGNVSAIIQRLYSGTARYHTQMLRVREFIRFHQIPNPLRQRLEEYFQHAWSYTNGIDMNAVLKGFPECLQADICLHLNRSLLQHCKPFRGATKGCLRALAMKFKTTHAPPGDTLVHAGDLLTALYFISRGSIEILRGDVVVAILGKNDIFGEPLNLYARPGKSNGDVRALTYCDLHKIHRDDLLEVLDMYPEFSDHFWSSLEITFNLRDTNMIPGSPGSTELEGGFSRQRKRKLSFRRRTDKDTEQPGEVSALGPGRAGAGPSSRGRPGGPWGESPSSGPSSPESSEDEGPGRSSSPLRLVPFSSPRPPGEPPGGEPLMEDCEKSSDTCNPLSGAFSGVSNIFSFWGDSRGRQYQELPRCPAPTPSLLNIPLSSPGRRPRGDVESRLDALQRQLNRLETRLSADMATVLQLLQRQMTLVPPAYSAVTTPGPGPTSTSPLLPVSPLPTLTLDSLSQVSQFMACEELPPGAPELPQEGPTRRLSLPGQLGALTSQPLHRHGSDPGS

SMILES	AC50 [1] [µM]	AC50 (Vasopressin V1a receptor) [µM]	AC50 (D(3) dopamine receptor) [µM]	AC50 [2] [µM]	AC50 [3] [µM]	AC50 [4] [µM]	AC50 [5] [µM]	AC50 [6] [µM]	AC50 [7] [µM]	AC50 (Estrogen receptor) [µM]
O=C(O)c1nn(Cc2ccc(Cl)cc2Cl)c2ccccc12 [LONIDAMINE]	> 30	> 30	> 30	> 30	> 30	> 30	> 30	> 30	> 30	> 30
C[C@H](N)C(=O)N[C@@H](CCC(N)=O)C(=O)O [ALANYL GLUTAMINE] (H-Ala-Gln-OH)	> 30	> 30	> 30	> 30	> 30	> 30	> 30	> 30	> 30	> 30
CCCCCCCC(=O)CC[C@@H]1[C@@H](C/C=C\CCCC(=O)O)[C@@H](O)C[C@H]1O [UNOPROSTONE]	> 30	> 30	> 30	> 30	> 30	> 30	> 30	> 30	> 30	> 30
CCN1C(=O)NC(c2ccccc2)C1=O (configuration not stated) [ETHOTOIN]	> 30	> 30	> 30	> 30	> 30	> 30	> 30	> 30	> 30	> 30
CCN(CC)C(C)C(=O)c1ccccc1 (configuration not stated) [DIETHYLPROPION]	6.5	> 30	> 30	> 10	> 30	> 10	> 10	> 30	> 30	> 30
CCC1(CC)C(=O)NC(=O)N(C)C1=O [METHARBITAL]	> 30	> 10	> 30	> 10	> 30	> 10	> 10	> 30	–	> 10
CC1NCCOC1c1ccccc1 (configuration not stated) [PHENMETRAZINE]	> 30	> 30	> 30	> 10	> 30	> 10	> 10	> 30	–	> 30
CC1=C(C(=O)O)N2C(=O)[C@@H](NC(=O)[C@H](N)C3=CCC=CC3)[C@H]2SC1 [CEPHRADINE]	> 30	> 30	> 30	> 30	> 30	> 30	> 30	> 30	–	> 30
Nc1nc(Cl)nc2c1ncn2[C@@H]1O[C@H](CO)[C@@H](O)[C@@H]1F [CLOFARABINE]	> 30	> 30	> 30	> 30	> 30	> 10	> 30	> 30	–	> 30
CCOC(=O)O[C@]1(C(=O)COC(=O)CC)CC[C@H]2[C@@H]3CCC4=CC(=O)C=C[C@]4(C)[C@H]3[C@@H](O)C[C@@]21C [PREDNICARBATE]	> 30	> 10	> 30	> 10	> 30	> 10	> 10	> 30	–	> 30
CN(C)CCOC(=O)C(c1ccccc1)C1(O)CCCC1 (configuration not stated) [CYCLOPENTOLATE]	> 30	> 10	> 30	> 10	> 30	> 10	0.069	> 30	–	> 10
OCC(O)COc1ccc(Cl)cc1 (configuration not stated)	> 30	> 10	> 30	> 10	> 30	> 10	> 10	> 30	–	> 10
Cc1cnc(Nc2ccc(OCCN3CCCC3)cc2)nc1Nc1cccc(S(=O)(=O)NC(C)(C)C)c1 [FEDRATINIB]	0.82	> 30	5.3	> 10	> 30	> 10	1.2	> 30	–	> 30
CCC(=O)[C@@]1(C)[C@H](C)C[C@H]2[C@@H]3CCC4=CC(=O)C=C[C@]4(C)[C@H]3[C@@H](O)C[C@@]21C [RIMEXOLONE]	> 30	> 10	> 30	> 10	> 30	> 10	> 10	> 30	–	> 30
CCC(=O)O[C@H](CC(=O)O)C[N+](C)(C)C [LEVOCARNITINE PROPIONATE]	> 30	> 30	> 30	> 30	> 30	> 30	> 30	> 30	–	> 30
CCCCOC(=O)C(=O)Nc1cccc(-c2nnn[nH]2)c1 [TAZANOLAST]	> 30	> 30	> 30	> 30	–	> 30	> 30	> 30	> 30	> 30
CCCCC[C@H](O)CC[C@@H]1[C@H]2Cc3cccc(OCC(=O)O)c3C[C@H]2C[C@H]1O [TREPROSTINIL]	> 30	> 30	> 30	> 30	–	> 30	> 30	> 30	> 30	> 30
COc1ccc2c3c1O[C@H]1C(=O)CC[C@H]4[C@@H](C2)N(C)CC[C@]314 [HYDROCODONE]	> 30	> 10	> 10	> 10	> 30	> 10	> 10	–	> 30	> 30
